Experimental data published in paper PMC5936891, “A focused library synthesis and cytotoxicity of quinones derived from the natural product bolinaquinone” (Royal Society Open Science, 2018).

What was measured:
HT29 (colon carcinoma) = assay: MTT in vitro growth inhibition assay, HT29; assay type: cell-based; conditions: Homo sapiens; for inhibition at 25 µM: HT-29, 25 µM of drug, 72 h, read-out: Percentage of Cell Growth Inhibition HT29; for GI50: HT-29, 72 h drug exposure
Description: (§1) With the desired bolinaquinone analogues 12–43 in hand, we examined their cytotoxicity against a panel of 11 tumour cell lines: HT29 (colon carcinoma), U87 and SJ-G2 (glioblastoma), MCF-7 (breast carcinoma), A2780 (ovarian carcinoma), H460 (lung carcinoma), A431 (skin carcinoma), Du145 (prostate carcinoma), BE2-C (neuroblastoma), MIA (pancreatic carcinoma), SMA (spontaneous murine astrocytoma) and a normal breast cell line (MCF10A). The inclusion of the MCF-10A cell line allowed a determination of a crude measure of relative toxicity while noting that the ultimate arbiter of toxicity requires in vivo evaluation. All analogues were initially screened at a 25 µM drug concentration.
(§2) Stock solutions were prepared as follows and stored at −20°C: drugs were stored as 40 mM solutions in DMSO. All cell lines were cultured in a humidified atmosphere 5% CO2 at 37°C. The cancer cell lines were maintained in Dulbecco's modified Eagle's medium (DMEM) (Trace Biosciences, Australia) supplemented with 10% fetal bovine serum, 10 mM sodium bicarbonate, penicillin (100 IU ml^−1), streptomycin (100 µg ml^−1) and glutamine (4 mM). The non-cancer MCF10A cell line was cultured in DMEM:F12 (1 : 1) cell culture media, 5% heat-inactivated horse serum, supplemented with penicillin (50 IU ml^−1), streptomycin (50 µg ml^−1), 20 mM Hepes, L-glutamine (2 mM), epidermal growth factor (20 ng ml^−1), hydrocortisone (500 ng ml^−1), cholera toxin (100 ng ml^−1) and insulin (10 ug ml^−1).
(§3) Cells in logarithmic growth were transferred to 96-well plates. Cytotoxicity was determined by plating cells in duplicate in 100 µl medium at a density of 2500–4000 cells per well. On day 0 (24 h after plating), when the cells were in logarithmic growth, 100 μl of medium with or without the test agent was added to each well. After 72 h, drug exposure growth inhibitory effects were evaluated using the MTT (3-[4,5-dimethylthiazol-2-yl]-2,5-diphenyl-tetrazolium bromide) assay and the absorbance read at 540 nm. Percentage growth inhibition was determined at a fixed drug concentration of 25 µM. A value of 100% is indicative of complete cell growth inhibition. Those analogues showing appreciable percentage growth inhibition underwent further dose–response analysis allowing for the calculation of a GI50 value. This value is the drug concentration at which cell growth is 50% inhibited based on the difference between the optical density values on day 0 and those at the end of drug exposure.

U87 (glioblastoma) = assay: MTT in vitro growth inhibition assay, U87; assay type: cell-based; conditions: for inhibition at 25 µM: 25 µM of drug, 72 h, read-out: Percentage of Cell Growth Inhibition U87; for GI50: 72 h drug exposure
Description: as §1, §2, §3

MCF-7 (breast carcinoma) = assay: MTT in vitro growth inhibition assay, MCF-7; assay type: cell-based; conditions: Homo sapiens; for inhibition at 25 µM: MCF7, 25 µM of drug, 72 h, read-out: Percentage of Cell Growth Inhibition MCF-7; for GI50: MCF7, 72 h drug exposure
Description: as §1, §2, §3

[1] = tested on: A2780 (ovarian carcinoma); assay: MTT in vitro growth inhibition assay, A2780; assay type: cell-based; conditions: Homo sapiens; for inhibition at 25 µM: 25 µM of drug, 72 h, read-out: Percentage of Cell Growth Inhibition A2780; for GI50: 72 h drug exposure
Description: as §1, §2, §3

H460 (lung carcinoma) = assay: MTT in vitro growth inhibition assay, H460; assay type: cell-based; conditions: Homo sapiens; for inhibition at 25 µM: NCI-H460, 25 µM of drug, 72 h, read-out: Percentage of Cell Growth Inhibition H460; for GI50: NCI-H460, 72 h drug exposure
Description: as §1, §2, §3

A431 (skin carcinoma) = assay: MTT in vitro growth inhibition assay, A431; assay type: cell-based; conditions: Homo sapiens; for inhibition at 25 µM: A-431, 25 µM of drug, 72 h, read-out: Percentage of Cell Growth Inhibition A431; for GI50: A-431, 72 h, 72 h drug exposure
Description: as §1, §2, §3

[2] = tested on: Du145 (prostate carcinoma); assay: MTT in vitro growth inhibition assay, Du145; assay type: cell-based; conditions: Homo sapiens; for inhibition at 25 µM: DU-145, 25 µM of drug, 72 h, read-out: Percentage of Cell Growth Inhibition Du145; for GI50: DU-145, 72 h, 72 h drug exposure
Description: as §1, §2, §3

BE2-C (neuroblastoma) = assay: MTT in vitro growth inhibition assay, BE2-C; assay type: cell-based; conditions: Homo sapiens, BE(2)-C, 72 h; for inhibition at 25 µM: 25 µM of drug, read-out: Percentage of Cell Growth Inhibition BE2-C; for GI50: 72 h drug exposure
Description: as §1, §2, §3

SJ-G2 (glioblastoma) = assay: MTT in vitro growth inhibition assay, SJ-G2; assay type: cell-based; conditions: for inhibition at 25 µM: 25 µM of drug, 72 h, read-out: Percentage of Cell Growth Inhibition SJ-G2; for GI50: 72 h drug exposure
Description: as §1, §2, §3

[3] = tested on: MIA (pancreatic carcinoma); assay: MTT in vitro growth inhibition assay, MIA; assay type: cell-based; conditions: for inhibition at 25 µM: 25 µM of drug, 72 h, read-out: Percentage of Cell Growth Inhibition MIA; for GI50: 72 h drug exposure
Description: as §1, §2, §3

[4] = tested on: SMA (spontaneous murine astrocytoma); assay: MTT in vitro growth inhibition assay, SMA; assay type: cell-based; conditions: Mus musculus; for inhibition at 25 µM: 25 µM of drug, 72 h, read-out: Percentage of Cell Growth Inhibition SMA; for GI50: 72 h drug exposure
Description: as §1, §2, §3

[5] = tested on: MCF10A (normal breast cell line); assay: MTT in vitro growth inhibition assay, MCF10A; assay type: cell-based; conditions: Homo sapiens, MCF-10A; for inhibition at 25 µM: 25 µM of drug, 72 h, read-out: Percentage of Cell Growth Inhibition MCF10A; for GI50: normal breast cell line, 72 h drug exposure
Description: as §1, §2, §3

| Compound | inhibition at 25 µM (HT29 (colon carcinoma)) [%] | GI50 (HT29 (colon carcinoma)) [µM] | inhibition at 25 µM (U87 (glioblastoma)) [%] | inhibition at 25 µM (MCF-7 (breast carcinoma)) [%] | GI50 (MCF-7 (breast carcinoma)) [µM] | inhibition at 25 µM [1] [%] | GI50 [1] [µM] | inhibition at 25 µM (H460 (lung carcinoma)) [%] | inhibition at 25 µM (A431 (skin carcinoma)) [%] | GI50 (A431 (skin carcinoma)) [µM] | inhibition at 25 µM [2] [%] | inhibition at 25 µM (BE2-C (neuroblastoma)) [%] | GI50 (BE2-C (neuroblastoma)) [µM] | inhibition at 25 µM (SJ-G2 (glioblastoma)) [%] | GI50 (SJ-G2 (glioblastoma)) [µM] | inhibition at 25 µM [3] [%] | inhibition at 25 µM [4] [%] | GI50 [4] [µM] | inhibition at 25 µM [5] [%] | melting point [°C] | also measured |
| --- | --- | --- | --- | --- | --- | --- | --- | --- | --- | --- | --- | --- | --- | --- | --- | --- | --- | --- | --- | --- | --- |
| COC1=CC(=O)C(OC)=C(c2cccc3ccccc23)C1=O [compound 25, 2,5-dimethoxy-3-(naphthalene-1-yl)cyclohexa-2,5-diene-1,4-dione] | 16 ± 3 | 43 ± 5.5 | 10 ± 2 | 28 ± 2 | 29 ± 2 | 66 ± 13 | 21 ± 1.3 | < 10 | 8 ± 3 | 47 ± 6.7 | 10 ± 5 | > 100 | 8 ± 0.5 | 54 ± 19 | 22 ± 1.5 | 18 ± 4 | 77 ± 3 | 20 ± 1.3 | < 10 | 134 to 137 | GI50 [3]: 42 ± 3.5 µM |
| COC1=CC(=O)C(OC)=C(c2ccccc2-c2ccccc2)C1=O [compound 29, 3-Biphenyl-2-yl-2,5-dimethoxycyclohexa-2,5-diene-1,4-dione] | 15 ± 1 |  | 14 ± 4 | 27 ± 5 | 28 ± 2.6 | 77 ± 5 | 17 ± 1.2 | 10 ± 4 | 14 ± 3 |  | 10 ± 2 | > 100 | 11 | 38 ± 9 | 31 ± 0.58 | < 10 | 72 ± 9 | 20 ± 1.7 | 21 ± 8 | 186 to 188 | GI50 [5]: 36 ± 3.8 µM |
| COC1=C(c2ccccc2)C(=O)C(OC)=C(c2ccccc2)C1=O [compound 30, 2,5-Dimethoxy-3,6-diphenylcyclohexa-2,5-diene-1,4-dione] | 73 ± 4 | 16 ± 1.2 | 52 ± 5 | > 100 | 7 ± 0.98 | > 100 | 5.9 | 26 ± 8 | 59 ± 6 | > 50 | 35 ± 5 | > 100 | 7 ± 0.1 | > 100 | 12 ± 0.9 | 63 ± 5 | > 100 | 6.2 ± 0.3 | > 100 | 150 to 152 | GI50 (U87 (glioblastoma)): 30 ± 1.8 µM; GI50 (H460 (lung carcinoma)): > 50 µM; GI50 [2]: > 50 µM; GI50 [3]: 20 ± 2 µM; GI50 [5]: 8.9 ± 1.6 µM |
| CCCCc1ccc(C2=C(OC)C(=O)C(c3ccc(CCCC)cc3)=C(OC)C2=O)cc1 [compound 31, 2,5-Bis(4-butylphenyl)-3,6-dimethoxycyclohexa-2,5-diene-1,4-dione] | 73 ± 3 |  | 53 ± 3 | 73 ± 5 |  | 55 ± 9 |  | 52 ± 9 | 75 ± 2 |  | 83 ± 2 | 68 ± 3 |  | 56 ± 6 |  | 72 ± 2 | 54 ± 4 |  | 66 ± 2 | 177 to 179 |  |
| COC1=C(c2ccccc2)C(=O)C(OC)=C(c2cccc3ccccc23)C1=O [compound 32, 2,5-Dimethoxy-3-(naphthalen-1-yl)-6-phenylcyclohexa-2,5-diene-1,4-dione] | 15 ± 4 |  | 19 ± 2 | 22 ± 2 |  | 60 ± 17 |  | 20 ± 8 | 17 ± 2 |  | 18 ± 4 | 27 ± 15 |  | 19 ± 3 |  | 13 ± 1 | 58 ± 13 |  | 58 ± 15 | 168 to 170 |  |
| COC1=C(c2ccc3ccccc3c2)C(=O)C(OC)=C(c2cccc3ccccc23)C1=O [compound 33, 2,5-Dimethoxy-3-(naphthalene-1-yl)-6-(naphthalene-3-yl)cyclohexa-2,5-diene-2,5-diene-1,4-dione] | 53 ± 2 | 23 ± 1.2 | 43 ± 11 | > 100 | 5.6 ± 0.7 | 98 ± 0.5 | 6.9 ± 1.2 | 45 ± 2 | 57 ± 3 | 23 ± 3.4 | 40 ± 1 | 81 ± 1 | 12 ± 0.9 | 92 ± 5 | 14 ± 1.9 | 72 ± 2 | 81 ± 10 | 11 ± 0.33 | 86 ± 3 | 163 to 165 | GI50 (U87 (glioblastoma)): 26 ± 2.1 µM; GI50 (H460 (lung carcinoma)): 28 ± 2.7 µM; GI50 [2]: 31 µM; GI50 [3]: 15 ± 0.9 µM; GI50 [5]: 13 ± 2.2 µM |
| COC1=C(c2ccc3ccccc3c2)C(=O)C(OC)=C(c2ccc(OC)cc2OC)C1=O [compound 34, 2,5-Dimethoxy-3-(2,4-dimethoxyphenyl)-6-(naphthalene-3-yl)cyclohexa-2,5-diene-1,4-dione] | 82 ± 2 | 10.2 ± 0.3 | 61 ± 4 | > 100 | 6.2 ± 0.31 | 100 ± 1 | 6.1 ± 0.03 | 49 ± 9 | 85 ± 2 | 15 ± 1 | 41 ± 3 | > 100 | 9.6 ± 0.5 | 83 ± 2 | 16 | 70 ± 1 | 98 ± 1 | 9.7 ± 0.6 | 99 ± 2 | 159 to 161 | GI50 (U87 (glioblastoma)): 22 ± 2 µM; GI50 (H460 (lung carcinoma)): 35 ± 6.9 µM; GI50 [2]: 27 ± 2.5 µM; GI50 [3]: 18 ± 0.33 µM; GI50 [5]: 12 ± 2.4 µM |
| CCCCc1ccc(C2=C(OC)C(=O)C(c3ccc4ccccc4c3)=C(OC)C2=O)cc1 [compound 35, 2-(4-Butylphenyl)-3,6-dimethoxy-5-(naphthalene-3-yl)cyclohexa-2,5-diene-1,4-dione] | 59 ± 3 | 21 ± 2.6 | 38 ± 2 | 87 ± 1 | 10 ± 0.6 | 66 ± 1 | 14 ± 2 | 61 ± 3 | 49 ± 3 | 26 ± 4.8 | 56 ± 2 | 61 ± 2 | 23 ± 3.2 | 67 ± 4 | 16 ± 2.2 | 61 ± 2 | 79 ± 5 | 8.2 ± 0.8 | 47 ± 5 | 134 to 136 | GI50 (U87 (glioblastoma)): 42 ± 2.8 µM; GI50 (H460 (lung carcinoma)): 19 ± 0.6 µM; GI50 [2]: 19 ± 1 µM; GI50 [3]: 18 ± 1.2 µM; GI50 [5]: 26 ± 4.8 µM |
